Test results: article PMC12716008 (Chemistry & Biodiversity, 2025)
≈ marks a conversion by molar mass, not a printed value. Where two headings read alike, the source gives them in different places. Starred links: 1 amine or outer side, 2 acyl side, 3 side chain; linkers in the order of their positions; H or OH if unused. Positions of bridges follow the written chain, without caps; N, C: chain ends. Non-standard residues stand in square brackets, D forms with d. Residues, ends and D or L forms follow the SMILES beside them. Chains are numbered I, II in the order given. Actinocin(9to1) = Cc1c2oc3c(C)ccc(C(=O)[*:1])c3nc-2c(C(=O)[*:2])c(N)c1=O; NMeV = CN[C@H](C(=O)O)C(C)C; Sar = CNCC(=O)O

What was measured:
[1] = tested on: African green monkey kidney (Vero) cell line; assay: Cytotoxicity, Presto Blue cell viability; assay type: cell-based; conditions: 72 h, read-out: Vero IC50 ± SD
Description: (§1) The human monocyte (U937) and African green monkey kidney (Vero) cell lines were used in this study to determine the cytotoxic potential of the quinoline derivatives. The cell lines were purchased from Separation Scientific SA (Pty) Ltd. (Johannesburg, South Africa) and maintained in Roswell Park Memorial Institute (RPMI) 1640 and Eagle's Minimal Essential Medium (EMEM), supplemented with 10% heat‐inactivated foetal bovine serum (FBS), 1% antibiotics (100 U/mL penicillin and 100 µg/mL streptomycin) and 1% antifungal agent (250 µg/mL amphotericin B) as previously described. The cells were cultured at 37°C, 5% CO2 in a humidified incubator to 80% confluency. Detachment was achieved by rinsing the cells with phosphate buffer saline followed by the addition of trypsin–EDTA (0.25% trypsin containing 0.01% EDTA). After 5 min, the reaction was inhibited through the addition of supplemented media.
(§2) Cell viability was assessed through the method described by Lall et al., using Presto Blue as the viability reagent. The cells were seeded in a flat‐bottom 96‐well plate (100 µL) at a concentration of 1.0 × 10^6 cells/mL and allowed to adhere for 24 h. The samples were prepared in DMSO at a stock concentration of 20 mM, serially diluted in complete media and added to the plate at a final concentration range of 0.78–100 µM. Controls included a vehicle control (2% DMSO), an untreated cell control, a 0% control (no cells) and actinomycin D, as the positive control, at a final test concentration range of 3.9 × 10^−4 to 0.05 µg/mL. Cells were incubated for 72 h, followed by the addition of 20 µL of Presto Blue reagent to all the wells and an additional 2 h incubation. Cell viability was measured using a VICTOR Nivo Multimode Microplate Reader (PerkinElmer) at an excitation/emission wavelength of 540/590 nm.
(§3) All results are presented as the mean ± standard deviation (where applicable) of experiments done in triplicate and in two or three independent experiments (as stated in each methods section). Descriptive analysis was used to directly compare and rank the compounds and derivatives based on their activity in the biological assays. Additionally, by comparing the antibiofilm activity to the antibacterial activity and the antibacterial activity to the cytotoxicity, selectivity indices were used to assess the preferential activity of the compounds.

[2] = tested on: human monocyte (U937) cell line; assay: Cytotoxicity, Presto Blue cell viability; assay type: cell-based; conditions: U-937, 72 h
Description: as §1, §2, §3

[3] = tested on: Mycobacterium smegmatis (MC^2 155); assay: Antimycobacterial activity, microtitre Alamar Blue/Presto Blue assay (MIC); assay type: cell-based; conditions: Mycolicibacterium smegmatis, read-out: M. smeg MIC
[4] = tested on: M. smegmatis biofilm formation; assay: Mycobacterial biofilm inhibition, microtitre antibiofilm assay (MBIC); assay type: cell-based, Mycobacterium smegmatis; conditions: 2–4 days, 37°C, read-out: M. smeg MBIC
[5] = tested on: MSSA UAMS‐1 biofilm formation; assay: Staphylococcal biofilm inhibition, crystal violet microtitre test (MBIC); assay type: cell-based; conditions: Staphylococcus aureus, 22 h, read-out: MSSA MBIC
[6] = tested on: MRSA AH1263 or LAC biofilm formation; assay: as above; assay type: cell-based; conditions: Staphylococcus aureus, 22 h, read-out: MRSA MBIC
[7] = tested on: Mycobacterium tuberculosis H37Rv (ATCC 27264); assay: Antimycobacterial activity, microtitre Alamar Blue/Presto Blue assay (MIC); assay type: cell-based; conditions: 120 h, read-out: M. tb MIC
[8] = tested on: methicillin‐sensitive S. aureus (MSSA) UAMS‐1; assay: Antistaphylococcal activity, broth microdilution (MIC); assay type: cell-based; conditions: Staphylococcus aureus, read-out: MSSA MIC
[9] = tested on: methicillin‐resistant S. aureus (MRSA) AH1263 or LAC; assay: as above; assay type: cell-based, Staphylococcus aureus; conditions: 18 h, read-out: MRSA MIC
hepatoma (Hep3B) = conditions: cited from earlier work
[10] = MC^2155, M. smegmatis, 24 h, 37°C
[11] = M. tuberculosis H37Rv, 5 days, 37°C
[12] = Staphylococcus aureus, MRSA, S. aureus AH1263/LAC
[13] = Chlorocebus sabaeus, Vero, Vero cells
[14] = U937 cells, 72 h, read-out: U937 IC50 ± SD

SMILES | MIC [3, 10] [µM] | minimal effective concentration ([4]; Mycolicibacterium smegmatis) [µM] | minimal effective concentration ([6]; S. aureus AH1263/LAC biofilm) [µM] | MIC [7, 11] [µM] | MIC ([8]; S. aureus UAMS‐1, 18 h) [µM] | MIC [9, 12] [µM] | IC50 [1, 13] [µM] | IC50 [2, 14] [µM] | further results
Cc1c2oc3c(C)ccc(C(=O)N[C@@H]4C(=O)N[C@H](C(C)C)C(=O)N5CCC[C@H]5C(=O)N(C)CC(=O)N(C)[C@@H](C(C)C)C(=O)O[C@@H]4C)c3nc-2c(C(=O)N[C@@H]2C(=O)N[C@H](C(C)C)C(=O)N3CCC[C@H]3C(=O)N(C)CC(=O)N(C)[C@@H](C(C)C)C(=O)O[C@@H]2C)c(N)c1=O [Actinomycin D, reference compound] (I: T[dV]P[Sar][NMeV] / II: T[dV]P[Sar][NMeV]; ester I:1-I:C, II:1-II:C; linker I:N-II:N via Actinocin(9to1)) |  |  |  |  |  |  |  |  | IC50 ([1]; Chlorocebus sabaeus, Vero): 0.02 µM; IC50 ([2]; read-out: U937 IC50 ± SD): 0.002 µM
O=C(O)c1cn(C2CC2)c2cc(N3CCNCC3)c(F)cc2c1=O [Ciprofloxacin, reference compound] | 0.6 (≈ 0.199 µg/mL) | 0.325 | 1 |  |  |  |  |  | minimal effective concentration ([5]; S. aureus UAMS‐1 biofilm): 2 µM
Oc1cccc2cccnc12 [HQ‐1, 8‐hydroxyquinoline, reference compound] |  |  |  |  |  |  |  |  | MIC [7]: 1 µM (≈ 0.145 µg/mL); MIC ([3]; MC^2155, 24 h): 3.13 µM (≈ 0.454 µg/mL); MIC ([8]; 18 h): 13.8 µM (≈ 2 µg/mL); MIC ([9]; S. aureus AH1263/LAC): 6.90 µM (≈ 1 µg/mL); MIC ([9]; Staphylococcus aureus, MRSA): 6.9 µM (≈ 1 µg/mL); minimal effective concentration [5]: 13.8 µM; minimal effective concentration [6]: 6.9 µM
Cc1ccc2c(Cl)cc(Cl)c(O)c2n1 [HQ‐2, 5,7‐dichloro‐8‐hydroxy‐2‐methylquinoline, reference compound] | 1.56 (≈ 0.356 µg/mL) | 3.13 | 35.2 | 0.1 (≈ 0.0228 µg/mL) | 2.2 (≈ 0.502 µg/mL) | 1.1 (≈ 0.251 µg/mL) | < 100 |  | minimal effective concentration ([5]; S. aureus UAMS‐1 biofilm): 17.6 µM; IC50 ([1]; Vero cells): 82.8 ± 7.09 µM
Cc1ccc2cccc(O)c2n1 [HQ‐3, 2‐methyl‐8‐hydroxyquinoline, reference compound] |  |  |  |  |  |  |  |  | MIC [7]: 1 µM (≈ 0.159 µg/mL); MIC ([3]; MC^2155, 24 h): 6.25 µM (≈ 0.995 µg/mL); MIC ([8]; 18 h): 201 µM (≈ 32 µg/mL); MIC ([9]; Staphylococcus aureus, MRSA): 101 µM (≈ 16 µg/mL); minimal effective concentration [5]: 101 µM; minimal effective concentration [6]: 201 µM; IC50 ([1]; Chlorocebus sabaeus, Vero): > 100 µM; IC50 ([2]; read-out: U937 IC50 ± SD, U937 cells, 72 h): > 100 µM
O=Cc1ccc2cccc(O)c2n1 [HQ‐4, 8‐hydroxyquinoline‐2‐carbaldehyde, reference compound] |  |  |  |  |  |  |  |  | MIC [7]: 1 µM (≈ 0.173 µg/mL); MIC ([3]; MC^2155, 24 h): > 100 µM; minimal effective concentration [4]: >100 µM; MIC ([8]; 18 h): 370 µM (≈ 64.1 µg/mL); MIC ([9]; Staphylococcus aureus, MRSA): 370 µM (≈ 64.1 µg/mL); minimal effective concentration [5]: 740 µM; minimal effective concentration [6]: 740 µM; IC50 ([1]; Chlorocebus sabaeus, Vero): > 100 µM; MTS50 (hepatoma (Hep3B)): 6.25 ± 0.034 µg/mL
NNC(=O)c1ccncc1 [Isoniazid, reference compound] |  |  |  | 0.3 (≈ 0.0411 µg/mL) |  |  |  |  | 
Cc1onc(-c2ccccc2)c1C(=O)N[C@@H]1C(=O)N2[C@@H]1SC(C)(C)[C@@H]2C(=O)O [Oxacillin, reference compound] |  |  |  |  | 1 (≈ 0.401 µg/mL) | 64 (≈ 25.7 µg/mL) |  |  | 
CCCCCOc1cccc2cccnc12 [QD‐1] | > 100 | > 100 | 595 | 100 (≈ 21.5 µg/mL) | 595 (≈ 128 µg/mL) | 595 (≈ 128 µg/mL) | > 100 | > 100 | minimal effective concentration ([5]; S. aureus UAMS‐1 biofilm): 595 µM
CC(C)CCOc1cccc2cccnc12 [QD‐2] | > 100 | > 100 | 1190 | > 100 |  | 1190 (≈ 256 µg/mL) | > 100 | > 100 | minimal effective concentration ([5]; S. aureus UAMS‐1 biofilm): 1190 µM
CC(C)=CCOc1cccc2cccnc12 [QD‐3] | > 100 | 100 | 601 | 100 (≈ 21.3 µg/mL) | 300 (≈ 64.1 µg/mL) | 300 (≈ 64.1 µg/mL) | > 100 | 83.83 ± 0.8 | minimal effective concentration ([5]; S. aureus UAMS‐1 biofilm): 601 µM
CCCCCOc1c(Cl)cc(Cl)c2ccc(C)nc12 [QD‐4] | > 100 | > 100 |  | > 100 |  |  | > 100 | > 100 | 
Cc1ccc2c(Cl)cc(Cl)c(OCCC(C)C)c2n1 [QD‐5] | > 100 | > 100 |  | > 100 |  |  | > 100 | > 100 | 
CC(C)=CCOc1c(Cl)cc(Cl)c2ccc(C)nc12 [QD‐6] | > 100 | > 100 | 256 | 100 (≈ 29.6 µg/mL) |  |  | > 100 | > 100 | 
CCCCCOc1cccc2ccc(C)nc12 [QD‐7] | > 100 | > 100 |  | 100 (≈ 22.9 µg/mL) | 1120 (≈ 256 µg/mL) | 1120 (≈ 256 µg/mL) | > 100 | > 100 | 
Cc1ccc2cccc(OCCC(C)C)c2n1 [QD‐8] | > 100 | 100 |  | 100 (≈ 22.9 µg/mL) | 559 (≈ 128 µg/mL) |  | > 100 | > 100 | 
CC(C)=CCOc1cccc2ccc(C)nc12 [QD‐9] | > 100 | > 100 |  | 100 (≈ 22.7 µg/mL) |  |  | > 100 | > 100 | 
CCCCCOC(=O)c1ccc2cccc(OCCCCC)c2n1 [QD‐10, pentyl 8‐(pentyloxy)quinoline‐2‐carboxylate] | > 100 | > 100 |  | 100 (≈ 32.9 µg/mL) | 389 (≈ 128 µg/mL) | 389 (≈ 128 µg/mL) | 84.8 ± 3.42 | 69.48 ± 0.16 | 
CC(C)CCOC(=O)c1ccc2cccc(OCCC(C)C)c2n1 [QD‐11, isopentyl 8‐(isopentyloxy)quinoline‐2‐carboxylate] | > 100 | > 100 |  | 100 (≈ 32.9 µg/mL) | 389 (≈ 128 µg/mL) | 389 (≈ 128 µg/mL) | 70.4 ± 3.99 | > 100 | 
CC(C)=CCOc1cccc2ccc(C=O)nc12 [QD‐12] | 100 (≈ 24.1 µg/mL) | 12.5 | 266 | 100 (≈ 24.1 µg/mL) | 266 (≈ 64.1 µg/mL) | 133 (≈ 32 µg/mL) | > 100 | > 100 | minimal effective concentration ([5]; S. aureus UAMS‐1 biofilm): 531 µM
CN[C@H](CC(C)C)C(=O)N[C@H]1C(=O)N[C@@H](CC(N)=O)C(=O)N[C@H]2C(=O)N[C@H]3C(=O)N[C@H](C(=O)N[C@H](C(=O)O)c4cc(O)cc(O)c4-c4cc3ccc4O)[C@H](O)c3ccc(c(Cl)c3)Oc3cc2cc(c3O[C@@H]2O[C@H](CO)[C@@H](O)[C@H](O)[C@H]2O[C@H]2C[C@](C)(N)[C@H](O)[C@H](C)O2)Oc2ccc(cc2Cl)[C@H]1O [Vancomycin, reference compound] |  |  |  |  |  |  |  |  | MIC ([8]; 18 h): 1 µM (≈ 1.45 µg/mL); MIC ([9]; Staphylococcus aureus, MRSA): 1 µM (≈ 1.45 µg/mL)
